The values below come from patent US12139492B2 (Endotarget Inc., priority 2021, dated 2024).

The structures appear in SMILES notation. Read-outs that look alike come from different tables or passages of the source.

In one experiment the test system is Mino cells. As to the kind of experiment: Antiproliferative effect, MTS cell viability assay, Mino cells. In kind it is cell-based. Particulars: Mino mantle cell lymphoma cells, read-out: IC50 (anti-proliferation) Mino cells. The procedure:
(§1) Antiproliferative effect of the exemplary compounds was assessed in B-cell malignancy models.
(§2) To assess the effect of the exemplary compounds on cell viability in B-cell malignancy models by degradation of BTK protein, Mino and JeKo-1 cells were treated with varying concentrations of Ibrutinib (0, 0.001, 0.01, 0.1, 1, 10 μM). Under these conditions, cell viability was determined by an MTS assay. Cytotoxicity was assayed by the determination of reduced tetrazolium (formazan) created by metabolically active cells as detected at 490 nm absorbance using a microplate reader (BMG Labtech, Cary, NC, USA).
(§3) The exemplary compounds attenuated the viability of Mino and JeKo-1 cells in a concentration-dependent manner at 72 h post treatment. Results are shown in Table 1 for each exemplary compound.

Another experiment deals with JeKo-1 cells. In words: Antiproliferative effect, MTS cell viability assay, JeKo-1 cells. In kind it is cell-based. Particulars: JeKo-1 mantle cell lymphoma cells, read-out: IC50 (anti-proliferation) JeKO-1 cells. On the procedure: as §1, §2, §3
On the technique in general: Formazan colour is commonly taken as a measure of viable cells.

Another experiment concerns the target BTK (Homo sapiens, UniProt Q06187). As to the kind of experiment: Degradation of BTK protein in Namalwa cells (Western blot; DC50, Dmax). Particulars: for DC50: cell line not given. In general terms: A western blot detects proteins with antibodies after separation by electrophoresis.
The mark [1] stands for this setting: read-out: DC50 (BTK degradation), concentration giving 50% reduction of BTK expression level.
[2] abbreviates: read-out: Dmax (BTK degradation).

BTK, sequence (Q06187 whole entry): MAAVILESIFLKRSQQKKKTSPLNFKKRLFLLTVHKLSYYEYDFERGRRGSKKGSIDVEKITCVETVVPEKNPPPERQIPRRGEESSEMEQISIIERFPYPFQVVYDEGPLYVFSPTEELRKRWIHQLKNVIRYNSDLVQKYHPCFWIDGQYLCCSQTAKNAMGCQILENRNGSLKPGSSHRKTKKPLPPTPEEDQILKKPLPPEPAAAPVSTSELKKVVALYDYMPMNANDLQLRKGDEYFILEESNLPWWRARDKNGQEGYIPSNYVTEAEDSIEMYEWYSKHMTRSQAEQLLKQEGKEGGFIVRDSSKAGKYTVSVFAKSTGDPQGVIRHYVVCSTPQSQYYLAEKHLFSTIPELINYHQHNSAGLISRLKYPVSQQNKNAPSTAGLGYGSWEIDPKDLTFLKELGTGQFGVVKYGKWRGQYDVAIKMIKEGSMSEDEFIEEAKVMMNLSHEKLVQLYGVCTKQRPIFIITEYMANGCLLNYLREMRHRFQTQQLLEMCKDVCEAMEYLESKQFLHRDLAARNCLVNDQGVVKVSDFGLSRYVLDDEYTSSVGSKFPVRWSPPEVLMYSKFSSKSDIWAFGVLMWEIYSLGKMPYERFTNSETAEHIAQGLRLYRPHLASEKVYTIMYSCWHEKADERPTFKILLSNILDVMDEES

The DC50 is the concentration at which degradation of the target reaches its halfway point. Usually Dmax stands for the greatest extent of degradation seen. As to `Nc1ncnc2c1c(-c1ccc(Oc3ccccc3)cc1)nn2C1CCN(CCCN2CCC(CN3CCC(c4ccc5c(c4)oc(=O)n5C4CCC(=O)NC4=O)CC3)C2)CC1` (stereo not drawn) [Compound 543, 3-(6-(1-((1-(3-(4-(4-amino-3-(4-phenoxyphenyl)-1H-pyrazolo[3,4-d]pyrimidin-1-yl)piperidin-1-yl)propyl)pyrrolidin-3-yl)methyl)piperidin-4-yl)-2-oxobenzo[d]oxazol-3(2H)-yl)piperidine-2,6-dione], the IC50 with Mino cells (Homo sapiens, MINO) is 1000 to 10000 nM; in the experiment with JeKo-1 cells (Homo sapiens), 1000 to 10000 nM. At BTK (setting [1]), the 50% degradation concentration (DC50) was 10 to 50 nM. Besides, the greatest degradation seen (Dmax) on BTK (setting [2]) was greater than 75%.

As to `NC(=O)c1c(-c2ccc(Oc3ccccc3)cc2)nn2c1NCC[C@H]2C1CCN(C(=O)N2CCN(CCC3CCN(c4ccc5c(c4)C(=O)N(C4CCC(=O)NC4=O)C5=O)CC3)CC2)CC1` (stereo partly drawn) [Compound 299, (7S)-7-(1-(4-(2-(1-(2-(2,6-dioxopiperidin-3-yl)-1,3-dioxoisoindolin-5-yl)piperidin-4-yl)ethyl)piperazine-1-carbonyl)piperidin-4-yl)-2-(4-phenoxyphenyl)-4,5,6,7-tetrahydropyrazolo[1,5-a]pyrimidine-3-carboxamide], the IC50 was in the range of 1000 to 10000 nM with Mino cells (Homo sapiens, MINO) and 1000 to 10000 nM in the experiment on JeKo-1 cells (Homo sapiens). The maximal degradation (Dmax) at BTK is greater than 75%. This compound had a half-maximal degradation concentration (DC50) at BTK (BTK degradation) of 10 to 50 nM.

With `Nc1ncnc2c1c(-c1ccc(Oc3ccccc3)cc1)nn2C1CCN(CC2CCN(CC3CCN(c4ccc(N5CCC(=O)NC5=O)cc4)CC3)CC2)CC1` [Compound 552], the IC50 with Mino cells (Homo sapiens) and in the experiment on JeKo-1 cells (Homo sapiens) was less than 1000 nM each time. Further, on BTK (setting [1]), the DC50 was less than 10 nM. Further, the greatest degradation seen (Dmax) on BTK (setting [2]) is greater than 90%.

Turning to `Nc1ncnc2c1c(-c1ccc(Oc3ccccc3)cc1)nn2C1CCN(CCCN2CCC(CC3CCN(c4ccc(NC5CCC(=O)NC5=O)cc4)CC3)C2)CC1` (stereo not drawn) [Compound 567, 3-((4-(4-((1-(3-(4-(4-amino-3-(4-phenoxyphenyl)-1H-pyrazolo[3,4-d]pyrimidin-1-yl)piperidin-1-yl)propyl)pyrrolidin-3-yl)methyl)piperidin-1-yl)phenyl)amino)piperidine-2,6-dione], the IC50 in the experiment with Mino cells (Homo sapiens, MINO) was 1000 to 10000 nM; with JeKo-1 cells (Homo sapiens), less than 1000 nM. Besides, the DC50 on BTK (setting [1]) was 10 to 50 nM. Further, on BTK (setting [2]), the Dmax was greater than 90%.

As for `Nc1ncnc2c1c(-c1ccc(Oc3ccccc3)cc1)nn2C1CCN(C(=O)NCCN2CCN(c3ccc4c(c3)CN(C3CCC(=O)NC3=O)C4=O)CC2)CC1` (stereo not drawn) [Compound 521, 4-(4-amino-3-(4-phenoxyphenyl)-1H-pyrazolo[3,4-d]pyrimidin-1-yl)-N-(2-(4-(2-(2,6-dioxopiperidin-3-yl)-1-oxoisoindolin-5-yl)piperazin-1-yl)ethyl)piperidine-1-carboxamide], the IC50 with Mino cells (Homo sapiens, MINO) was less than 1000 nM; in the experiment with JeKo-1 cells (Homo sapiens), less than 1000 nM. The DC50 at BTK (setting [1]) was less than 10 nM. Further, the Dmax at BTK (setting [2]) was greater than 90%.

Turning to `Nc1ncnc2c1c(-c1ccc(Oc3ccccc3)cc1)nn2C1CCN(CCOCCOCCN2CCC(c3ccc4c(c3)C(=O)N(C3CCC(=O)NC3=O)C4=O)CC2)CC1` (stereo not drawn) [Compound 418, 5-(1-(2-(2-(2-(4-(4-amino-3-(4-phenoxyphenyl)-1H-pyrazolo[3,4-d]pyrimidin-1-yl)piperidin-1-yl)ethoxy)ethoxy)ethyl)piperidin-4-yl)-2-(2,6-dioxopiperidin-3-yl)isoindoline-1,3-dione], the IC50 in the experiment with Mino cells and in the experiment on JeKo-1 cells was 1000 to 10000 nM throughout. Also, the “degradation of BTK protein” value at BTK (Namalwa B lymphocyte cells, various concentrations, 24 hours, Western blot) is reported as “dose-dependent degradation”. Also, the half-maximal degradation concentration (DC50) on BTK (setting [1]) was less than 10 nM. Moreover, at BTK (setting [2]), the Dmax was greater than 90%.

For the compound `Nc1ncnc2c1c(-c1ccc(Oc3ccccc3)cc1)nn2C1CCN(C2CCN(C(=O)N3CCN(CCCN4CCC(c5ccc6c(c5)C(=O)N(C5CCC(=O)NC5=O)C6=O)CC4)CC3)CC2)CC1` (stereo not drawn) [Compound 261, 5-(1-(3-(4-(4-(4-amino-3-(4-phenoxyphenyl)-1H-pyrazolo[3,4-d]pyrimidin-1-yl)-[1,4′-bipiperidine]-1′-carbonyl)piperazin-1-yl)propyl)piperidin-4-yl)-2-(2,6-dioxopiperidin-3-yl)isoindoline-1,3-dione], the IC50 in the experiment on Mino cells (Homo sapiens, MINO) is greater than 10000 nM; in the experiment on JeKo-1 cells (Homo sapiens), 1000 to 10000 nM. In addition, on BTK, the Dmax is greater than 90%. For the same compound, the 50% degradation concentration (DC50) at BTK (BTK degradation) lay in the range of 10 to 50 nM.

Take `NC(=O)c1c(-c2ccc(Oc3ccccc3)cc2)nn2c1NCCC2C1CCN(CC2CCN(C(=O)N3CCC(N4CCN(c5ccc6c(c5)CN(C5CCC(=O)NC5=O)C6=O)CC4)CC3)CC2)CC1` (stereo not drawn) [Compound 364, 7-(1-((1-(4-(4-(2-(2,6-dioxopiperidin-3-yl)-1-oxoisoindolin-5-yl)piperazin-1-yl)piperidine-1-carbonyl)piperidin-4-yl)methyl)piperidin-4-yl)-2-(4-phenoxyphenyl)-4,5,6,7-tetrahydropyrazolo[1,5-a]pyrimidine-3-carboxamide]: the IC50 in the experiment with Mino cells (Homo sapiens, MINO) is less than 1000 nM; with JeKo-1 cells (Homo sapiens), less than 1000 nM. The compound also came in with a Dmax on BTK greater than 90%. The compound further had a DC50 at BTK (BTK degradation) of less than 10 nM.

In the case of `Nc1ncnc2c1c(-c1ccc(Oc3ccccc3)cc1)nn2C1CCN(C2CCN(CC3CCN(CC4CN(c5ccc6c(c5)CN(C5CCC(=O)NC5=O)C6=O)C4)CC3)CC2)CC1` (stereo not drawn) [Compound 436, 3-(5-(3-((4-((4-(4-amino-3-(4-phenoxyphenyl)-1H-pyrazolo[3,4-d]pyrimidin-1-yl)-[1,4′-bipiperidin]-1′-yl)methyl)piperidin-1-yl)methyl)azetidin-1-yl)-1-oxoisoindolin-2-yl)piperidine-2,6-dione], the IC50 in the experiment on Mino cells (Homo sapiens, MINO) is less than 1000 nM; in the experiment with JeKo-1 cells (Homo sapiens), 1000 to 10000 nM. On BTK (setting [1]), the 50% degradation concentration (DC50) is less than 10 nM. Also, the greatest degradation seen (Dmax) at BTK (setting [2]) was greater than 90%.

With `NC(=O)c1c(-c2ccc(Oc3ccccc3)cc2)nn2c1NCCC2C1CCN(CC2CCN(CCN3CCN(c4ccc5c(c4)C(=O)N(C4CCC(=O)NC4=O)C5=O)CC3)CC2)CC1` (stereo not drawn) [Compound 315, 7-(1-((1-(2-(4-(2-(2,6-dioxopiperidin-3-yl)-1,3-dioxoisoindolin-5-yl)piperazin-1-yl)ethyl)piperidin-4-yl)methyl)piperidin-4-yl)-2-(4-phenoxyphenyl)-4,5,6,7-tetrahydropyrazolo[1,5-a]pyrimidine-3-carboxamide], the IC50 was in the range of 1000 to 10000 nM with Mino cells (Homo sapiens, MINO) and 1000 to 10000 nM in the experiment with JeKo-1 cells (Homo sapiens). Also, on BTK, the greatest degradation seen (Dmax) was greater than 75%. On BTK (BTK degradation), the DC50 was greater than 50 nM.

Regarding `Nc1ncnc2c1c(-c1ccc(Oc3ccccc3)cc1)nn2C1CCN(C[C@@H]2CCN(CC3CN(CC4CN(c5ccc6c(c5)C(=O)N(C5CCC(=O)NC5=O)C6=O)C4)C3)C2)CC1` (stereo partly drawn) [Compound 427b, 5-(3-((3-(((S)-3-((4-(4-amino-3-(4-phenoxyphenyl)-1H-pyrazolo[3,4-d]pyrimidin-1-yl)piperidin-1-yl)methyl)pyrrolidin-1-yl)methyl)azetidin-1-yl)methyl)azetidin-1-yl)-2-(2,6-dioxopiperidin-3-yl)isoindoline-1,3-dione], the IC50 in the experiment on Mino cells (Homo sapiens, MINO) lay within 1000 to 10000 nM; with JeKo-1 cells (Homo sapiens), 1000 to 10000 nM. Also, at BTK (setting [1]), the DC50 was greater than 50 nM. Besides, on BTK (setting [2]), the maximal degradation (Dmax) was greater than 90%.

For `Nc1ncnc2c1c(-c1ccc(Oc3ccccc3)cc1)nn2C1CCN(C2CCN(C(=O)N3CCC(N4CCC(c5ccc6c(c5)C(=O)N(C5CCC(=O)NC5=O)C6=O)CC4)CC3)CC2)CC1` (stereo not drawn) [Compound 235, 5-(1′-(4-(4-amino-3-(4-phenoxyphenyl)-1H-pyrazolo[3,4-d]pyrimidin-1-yl)-[1,4′-bipiperidine]-1′-carbonyl)-[1,4′-bipiperidin]-4-yl)-2-(2,6-dioxopiperidin-3-yl)isoindoline-1,3-dione], the IC50 with Mino cells (Homo sapiens, MINO) was in the range of 1000 to 10000 nM; in the experiment with JeKo-1 cells (Homo sapiens), 1000 to 10000 nM. The compound further returned a maximal degradation (Dmax) at BTK greater than 90%. Moreover, the DC50 on BTK (BTK degradation) lay within 10 to 50 nM.

`Nc1ncnc2c1c(-c1ccc(Oc3ccccc3)cc1)nn2C1CCN(C2CCN(C(=O)N3CCN(CCN4CCN(c5ccc6c(c5)CN(C5CCC(=O)NC5=O)C6=O)CC4)CC3)CC2)CC1` (stereo not drawn) [Compound 246, 3-(5-(4-(2-(4-(4-(4-amino-3-(4-phenoxyphenyl)-1H-pyrazolo[3,4-d]pyrimidin-1-yl)-[1,4′-bipiperidine]-1′-carbonyl)piperazin-1-yl)ethyl)piperazin-1-yl)-1-oxoisoindolin-2-yl)piperidine-2,6-dione]: the IC50 was in the range of 1000 to 10000 nM with Mino cells (Homo sapiens, MINO) and 1000 to 10000 nM in the experiment on JeKo-1 cells (Homo sapiens). Also, the greatest degradation seen (Dmax) at BTK is greater than 75%. In addition, the DC50 at BTK (BTK degradation) lay within 10 to 50 nM.

As to `Nc1ncnc2c1c(-c1ccc(Oc3ccccc3)cc1)nn2C1CCN(C2CCN(C(=O)N3CCC(CCCN4CCN(c5ccc6c(c5)CN(C5CCC(=O)NC5=O)C6=O)CC4)CC3)CC2)CC1` (stereo not drawn) [Compound 264, 3-(5-(4-(3-(1-(4-(4-amino-3-(4-phenoxyphenyl)-1H-pyrazolo[3,4-d]pyrimidin-1-yl)-[1,4′-bipiperidine]-1′-carbonyl)piperidin-4-yl)propyl)piperazin-1-yl)-1-oxoisoindolin-2-yl)piperidine-2,6-dione], the IC50 is 1000 to 10000 nM in the experiment on Mino cells (Homo sapiens, MINO) and greater than 10000 nM with JeKo-1 cells (Homo sapiens). The compound also came in with a Dmax at BTK greater than 75%. The compound also displayed a DC50 at BTK (BTK degradation) of 10 to 50 nM.
